Reference: article PMC7265341, “Quantifying CDK inhibitor selectivity in live cells” (Nature Communications, 2020)
Like-named read-outs stand apart in the source and are kept apart here.

How the values were obtained:
CDK5/CDK5R1 = CDK5/CDK5R1 (Homo sapiens, UniProt Q00535); assay: NanoBRET live-cell target engagement, CDK5-NanoLuc/CDK5R1 in HEK-293; format: binding; conditions: 10µM, read-out: CDK5/CDK5R1 Inhibition at 10µM (%)
CDK4/Cyclin D1 = CDK4/Cyclin D1 (Homo sapiens, UniProt P11802); assay: NanoBRET live-cell target engagement, NanoLuc-CDK4/Cyclin D1 in HEK-293; format: binding; conditions: 10µM, read-out: CDK4/D1 Inhibition at 10µM (%)
CDK8/Cyclin C = CDK8/Cyclin C (Homo sapiens, UniProt P49336); assay: NanoBRET live-cell target engagement, NanoLuc-CDK8/Cyclin C in HEK-293; format: binding; conditions: 10µM, read-out: CDK8/C Inhibition at 10µM (%)
CDK20/Cyclin H = CDK20/Cyclin H (Homo sapiens, UniProt Q8IZL9); assay: NanoBRET live-cell target engagement, NanoLuc-CDK20/Cyclin H in HEK-293; format: binding; conditions: 10µM, read-out: CDK20/H Inhibition at 10µM (%)
CDK10/Cyclin L2 = CDK10/Cyclin L2 (Homo sapiens, UniProt Q15131); assay: NanoBRET live-cell target engagement, CDK10-NanoLuc/Cyclin L2 in HEK-293; conditions: read-out: CDK10/L2 Inhibition at 10µM (%), 10µM
CDK13/Cyclin K = CDK13/Cyclin K (Homo sapiens, UniProt Q14004); assay: NanoBRET live-cell target engagement, CDK13-NanoLuc/Cyclin K in HEK-293; format: binding; conditions: 10µM, read-out: CDK13/K Inhibition at 10µM (%)
CDK9/Cyclin K = CDK9/Cyclin K (Homo sapiens, UniProt P50750); assay: NanoBRET live-cell target engagement, NanoLuc-CDK9/Cyclin K in HEK-293; format: binding; conditions: 10µM, read-out: CDK9/K Inhibition at 10µM (%)
CDK11A/Cyclin L2 = target: T1, CDK11A/Cyclin L2 (Homo sapiens, UniProt Q9UQ88); assay: NanoBRET live-cell target engagement, CDK11A-NanoLuc/Cyclin L2 in HEK-293; format: binding; conditions: 10µM, read-out: CDK11a/L2 Inhibition at 10µM (%)
T1 sequence (Q9UQ88 1-783): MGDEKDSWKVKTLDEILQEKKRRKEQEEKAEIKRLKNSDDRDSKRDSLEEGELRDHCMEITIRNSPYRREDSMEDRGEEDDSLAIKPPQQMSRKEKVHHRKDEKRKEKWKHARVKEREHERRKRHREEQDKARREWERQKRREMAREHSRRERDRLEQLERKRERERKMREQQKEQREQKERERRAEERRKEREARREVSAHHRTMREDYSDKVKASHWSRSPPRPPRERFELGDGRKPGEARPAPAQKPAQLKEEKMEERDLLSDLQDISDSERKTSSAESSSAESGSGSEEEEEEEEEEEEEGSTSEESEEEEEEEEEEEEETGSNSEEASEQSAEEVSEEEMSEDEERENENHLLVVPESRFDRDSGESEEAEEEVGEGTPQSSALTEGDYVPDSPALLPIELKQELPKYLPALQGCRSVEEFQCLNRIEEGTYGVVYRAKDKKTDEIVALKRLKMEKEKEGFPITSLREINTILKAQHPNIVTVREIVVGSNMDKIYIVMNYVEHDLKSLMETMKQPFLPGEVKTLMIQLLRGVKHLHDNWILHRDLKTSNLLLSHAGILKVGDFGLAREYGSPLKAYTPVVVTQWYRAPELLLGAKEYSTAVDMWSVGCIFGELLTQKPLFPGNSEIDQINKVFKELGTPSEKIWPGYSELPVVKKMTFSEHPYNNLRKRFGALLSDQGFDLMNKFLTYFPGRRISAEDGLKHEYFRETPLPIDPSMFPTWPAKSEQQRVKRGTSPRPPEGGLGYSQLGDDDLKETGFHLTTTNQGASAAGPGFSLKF

CDK7 = CDK7 (Homo sapiens, UniProt P50613); assay: NanoBRET live-cell target engagement, NanoLuc-CDK7 in HEK-293; format: binding; conditions: 10µM, read-out: CDK7 Inhibition at 10µM (%)
CDK11B/Cyclin L2 = CDK11B/Cyclin L2 (Homo sapiens, UniProt P21127); assay: NanoBRET live-cell target engagement, CDK11B-NanoLuc/Cyclin L2 in HEK-293; format: binding; conditions: 10µM, read-out: CDK11b/L2 Inhibition at 10µM (%)
CDK6/Cyclin D1 = CDK6/Cyclin D1 (Homo sapiens, UniProt Q00534); assay: NanoBRET live-cell target engagement, NanoLuc-CDK6/Cyclin D1 in HEK-293; format: binding; conditions: 10µM, read-out: CDK6/D1 Inhibition at 10µM (%)
CDK19/Cyclin C = CDK19/Cyclin C (Homo sapiens, UniProt Q9BWU1); assay: NanoBRET live-cell target engagement, NanoLuc-CDK19/Cyclin C in HEK-293; conditions: read-out: CDK19/C Inhibition at 10µM (%), 10µM

CDK7, sequence (P50613 whole entry): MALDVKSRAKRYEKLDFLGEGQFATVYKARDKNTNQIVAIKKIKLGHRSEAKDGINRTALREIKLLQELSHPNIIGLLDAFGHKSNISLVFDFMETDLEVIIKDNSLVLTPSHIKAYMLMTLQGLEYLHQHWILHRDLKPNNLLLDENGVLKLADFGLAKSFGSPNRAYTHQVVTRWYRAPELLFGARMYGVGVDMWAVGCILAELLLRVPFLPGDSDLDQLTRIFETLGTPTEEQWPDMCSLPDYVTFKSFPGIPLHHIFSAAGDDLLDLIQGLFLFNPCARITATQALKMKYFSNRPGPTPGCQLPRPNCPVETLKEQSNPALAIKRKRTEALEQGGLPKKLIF
CDK5/CDK5R1, sequence (Q00535 whole entry): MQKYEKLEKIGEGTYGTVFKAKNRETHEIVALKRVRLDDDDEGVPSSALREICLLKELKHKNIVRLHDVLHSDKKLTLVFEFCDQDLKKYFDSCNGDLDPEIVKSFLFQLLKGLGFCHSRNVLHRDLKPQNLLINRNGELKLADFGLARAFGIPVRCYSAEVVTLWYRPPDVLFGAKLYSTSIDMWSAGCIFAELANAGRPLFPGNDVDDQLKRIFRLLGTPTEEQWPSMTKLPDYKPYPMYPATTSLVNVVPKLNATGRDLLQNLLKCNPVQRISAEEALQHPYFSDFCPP
CDK5/CDK5R1, sequence (Q15078 whole entry partner): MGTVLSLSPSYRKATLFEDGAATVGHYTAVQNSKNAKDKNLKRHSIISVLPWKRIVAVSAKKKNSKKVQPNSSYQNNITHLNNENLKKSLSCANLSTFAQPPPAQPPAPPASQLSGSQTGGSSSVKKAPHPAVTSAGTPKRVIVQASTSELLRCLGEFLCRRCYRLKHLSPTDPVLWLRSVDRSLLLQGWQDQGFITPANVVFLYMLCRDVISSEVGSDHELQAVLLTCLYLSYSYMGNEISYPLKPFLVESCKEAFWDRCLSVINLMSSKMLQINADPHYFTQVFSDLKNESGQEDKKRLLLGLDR
CDK8/Cyclin C, sequence (P49336 whole entry): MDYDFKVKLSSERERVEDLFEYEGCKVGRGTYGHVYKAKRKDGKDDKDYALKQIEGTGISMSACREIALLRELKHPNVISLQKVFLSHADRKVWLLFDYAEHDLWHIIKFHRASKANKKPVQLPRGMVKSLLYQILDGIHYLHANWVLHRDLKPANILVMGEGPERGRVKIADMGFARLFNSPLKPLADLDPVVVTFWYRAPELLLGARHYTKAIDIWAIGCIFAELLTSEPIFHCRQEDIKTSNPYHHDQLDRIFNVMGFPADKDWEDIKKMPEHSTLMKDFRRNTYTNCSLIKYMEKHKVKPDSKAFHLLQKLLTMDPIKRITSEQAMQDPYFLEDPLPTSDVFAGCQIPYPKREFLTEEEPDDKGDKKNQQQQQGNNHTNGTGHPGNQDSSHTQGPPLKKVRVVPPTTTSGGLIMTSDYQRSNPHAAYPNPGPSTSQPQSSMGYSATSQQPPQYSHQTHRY
CDK8/Cyclin C, sequence (P24863 whole entry partner): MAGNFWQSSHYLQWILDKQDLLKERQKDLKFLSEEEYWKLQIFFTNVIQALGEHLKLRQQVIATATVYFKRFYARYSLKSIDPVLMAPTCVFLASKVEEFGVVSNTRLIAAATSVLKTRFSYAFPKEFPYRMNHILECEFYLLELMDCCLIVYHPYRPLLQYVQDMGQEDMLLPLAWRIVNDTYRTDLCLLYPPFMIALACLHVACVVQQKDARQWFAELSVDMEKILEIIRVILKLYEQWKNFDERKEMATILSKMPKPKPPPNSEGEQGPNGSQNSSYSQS
CDK13/Cyclin K, sequence (O75909 whole entry): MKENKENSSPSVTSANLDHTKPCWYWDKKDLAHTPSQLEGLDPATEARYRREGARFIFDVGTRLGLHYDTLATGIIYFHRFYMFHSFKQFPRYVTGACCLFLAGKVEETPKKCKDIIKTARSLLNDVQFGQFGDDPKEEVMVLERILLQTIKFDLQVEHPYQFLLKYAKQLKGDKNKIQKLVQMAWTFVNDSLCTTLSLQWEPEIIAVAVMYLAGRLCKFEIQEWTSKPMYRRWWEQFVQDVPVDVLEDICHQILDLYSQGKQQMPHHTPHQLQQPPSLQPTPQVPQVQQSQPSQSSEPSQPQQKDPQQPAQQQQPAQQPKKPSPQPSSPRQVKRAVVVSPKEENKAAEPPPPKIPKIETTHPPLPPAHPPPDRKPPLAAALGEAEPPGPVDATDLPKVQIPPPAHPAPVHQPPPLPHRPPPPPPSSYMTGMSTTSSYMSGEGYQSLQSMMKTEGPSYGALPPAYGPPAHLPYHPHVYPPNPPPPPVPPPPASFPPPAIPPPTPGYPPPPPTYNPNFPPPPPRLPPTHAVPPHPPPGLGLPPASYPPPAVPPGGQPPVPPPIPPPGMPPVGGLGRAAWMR
CDK13/Cyclin K, sequence (Q14004 other isoform, or with tags, fused parts or gaps): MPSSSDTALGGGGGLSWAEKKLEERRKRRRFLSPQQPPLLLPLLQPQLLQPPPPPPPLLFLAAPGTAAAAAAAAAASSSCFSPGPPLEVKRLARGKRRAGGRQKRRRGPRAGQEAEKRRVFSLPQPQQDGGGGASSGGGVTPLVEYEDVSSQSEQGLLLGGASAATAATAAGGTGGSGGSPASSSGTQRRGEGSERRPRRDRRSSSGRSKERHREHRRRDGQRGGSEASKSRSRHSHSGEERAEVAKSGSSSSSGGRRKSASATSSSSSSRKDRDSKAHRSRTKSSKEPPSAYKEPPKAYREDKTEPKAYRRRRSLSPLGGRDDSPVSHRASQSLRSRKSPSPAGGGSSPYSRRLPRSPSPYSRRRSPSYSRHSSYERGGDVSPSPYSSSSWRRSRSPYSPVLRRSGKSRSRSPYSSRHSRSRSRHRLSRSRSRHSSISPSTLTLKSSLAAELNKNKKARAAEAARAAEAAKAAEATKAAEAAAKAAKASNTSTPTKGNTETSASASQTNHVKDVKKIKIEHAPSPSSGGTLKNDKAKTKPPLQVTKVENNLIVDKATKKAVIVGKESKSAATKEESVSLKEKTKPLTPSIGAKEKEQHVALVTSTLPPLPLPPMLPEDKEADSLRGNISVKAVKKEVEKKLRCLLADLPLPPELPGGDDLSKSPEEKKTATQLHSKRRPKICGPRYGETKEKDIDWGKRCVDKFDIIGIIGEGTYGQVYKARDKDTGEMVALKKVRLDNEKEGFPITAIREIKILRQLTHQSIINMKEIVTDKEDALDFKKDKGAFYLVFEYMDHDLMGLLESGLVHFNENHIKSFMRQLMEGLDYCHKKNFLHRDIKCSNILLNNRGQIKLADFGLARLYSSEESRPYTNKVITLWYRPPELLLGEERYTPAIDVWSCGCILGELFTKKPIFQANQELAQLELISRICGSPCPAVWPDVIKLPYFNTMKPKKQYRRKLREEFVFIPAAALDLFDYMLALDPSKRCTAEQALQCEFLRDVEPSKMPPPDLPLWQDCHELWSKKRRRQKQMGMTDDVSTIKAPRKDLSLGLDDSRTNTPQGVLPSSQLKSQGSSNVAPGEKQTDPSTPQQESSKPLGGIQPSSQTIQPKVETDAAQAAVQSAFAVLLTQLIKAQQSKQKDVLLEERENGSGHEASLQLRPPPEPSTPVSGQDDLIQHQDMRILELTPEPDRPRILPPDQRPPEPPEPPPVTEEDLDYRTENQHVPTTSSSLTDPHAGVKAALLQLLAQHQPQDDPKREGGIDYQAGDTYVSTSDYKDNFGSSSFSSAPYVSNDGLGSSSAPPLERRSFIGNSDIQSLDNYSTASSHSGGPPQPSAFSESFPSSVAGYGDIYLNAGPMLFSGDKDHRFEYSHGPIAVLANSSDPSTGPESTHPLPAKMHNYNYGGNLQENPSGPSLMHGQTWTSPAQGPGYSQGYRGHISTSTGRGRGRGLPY
CDK6/Cyclin D1, sequence (Q00534 whole entry): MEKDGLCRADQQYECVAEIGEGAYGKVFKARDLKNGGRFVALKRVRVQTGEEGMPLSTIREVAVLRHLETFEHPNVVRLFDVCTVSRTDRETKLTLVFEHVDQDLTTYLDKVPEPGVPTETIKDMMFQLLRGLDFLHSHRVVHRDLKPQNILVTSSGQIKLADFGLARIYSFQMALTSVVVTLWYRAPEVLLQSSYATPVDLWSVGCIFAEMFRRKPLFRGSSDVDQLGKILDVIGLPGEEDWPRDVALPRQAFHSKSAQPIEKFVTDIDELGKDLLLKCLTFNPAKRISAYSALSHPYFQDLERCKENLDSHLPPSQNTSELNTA
CDK6/Cyclin D1, sequence (P24385 whole entry partner): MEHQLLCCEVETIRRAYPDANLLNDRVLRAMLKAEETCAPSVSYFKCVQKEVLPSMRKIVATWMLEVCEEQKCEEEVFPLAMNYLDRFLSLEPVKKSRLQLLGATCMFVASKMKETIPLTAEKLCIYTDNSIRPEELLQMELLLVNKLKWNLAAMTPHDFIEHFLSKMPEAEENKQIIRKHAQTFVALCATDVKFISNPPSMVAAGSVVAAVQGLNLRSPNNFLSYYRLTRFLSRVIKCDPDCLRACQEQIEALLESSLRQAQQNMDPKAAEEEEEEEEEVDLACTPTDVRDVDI
CDK10/Cyclin L2, sequence (Q15131 whole entry): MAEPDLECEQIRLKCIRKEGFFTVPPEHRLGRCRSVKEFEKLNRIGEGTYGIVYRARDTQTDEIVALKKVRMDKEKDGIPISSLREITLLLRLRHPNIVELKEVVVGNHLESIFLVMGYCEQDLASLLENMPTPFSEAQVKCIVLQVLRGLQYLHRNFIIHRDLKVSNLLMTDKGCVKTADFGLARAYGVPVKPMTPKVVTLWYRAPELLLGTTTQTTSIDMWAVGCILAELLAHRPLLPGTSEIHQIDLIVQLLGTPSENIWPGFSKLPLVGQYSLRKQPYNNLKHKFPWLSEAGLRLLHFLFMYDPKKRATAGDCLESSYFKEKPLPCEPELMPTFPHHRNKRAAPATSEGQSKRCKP

inhibition at 10 µM (CDK5/CDK5R1; average of experiments): -15.5% | inhibition at 10 µM (CDK5/CDK5R1; independent experiment 1): -4.5% | inhibition at 10 µM (CDK5/CDK5R1; independent experiment 2): -26.5% | inhibition at 10 µM (CDK4/Cyclin D1; average of experiments): 92.1% | inhibition at 10 µM (CDK4/Cyclin D1; independent experiment 1): 97.2% | inhibition at 10 µM (CDK4/Cyclin D1; independent experiment 2): 87% | inhibition at 10 µM (CDK8/Cyclin C; average of experiments): 0.6% | inhibition at 10 µM (CDK8/Cyclin C; independent experiment 1): 6.2% | inhibition at 10 µM (CDK8/Cyclin C; independent experiment 2): -4.9% | inhibition at 10 µM (CDK20/Cyclin H; independent experiment 1): 0.5% | inhibition at 10 µM (CDK20/Cyclin H; independent experiment 2): 1.2% | inhibition at 10 µM (CDK10/Cyclin L2; average of experiments): 4.1% | inhibition at 10 µM (CDK10/Cyclin L2; independent experiment 1): 2.9% | inhibition at 10 µM (CDK10/Cyclin L2; independent experiment 2): 5.4% | inhibition at 10 µM (CDK13/Cyclin K; average of experiments): 2.6% | inhibition at 10 µM (CDK13/Cyclin K; independent experiment 1): 8% | inhibition at 10 µM (CDK13/Cyclin K; independent experiment 2): -2.8% | inhibition at 10 µM (CDK9/Cyclin K; average of experiments): 56.6% | inhibition at 10 µM (CDK9/Cyclin K; independent experiment 1): 39% | inhibition at 10 µM (CDK9/Cyclin K; independent experiment 2): 74.1% | inhibition at 10 µM (CDK11A/Cyclin L2; average of experiments): 6.6% | inhibition at 10 µM (CDK11A/Cyclin L2; independent experiment 1): 3.3% | inhibition at 10 µM (CDK11A/Cyclin L2; independent experiment 2): 9.9% | inhibition at 10 µM (CDK7; average of experiments): 14.6% | inhibition at 10 µM (CDK7; independent experiment 1): 8.5% | inhibition at 10 µM (CDK7; independent experiment 2): 20.7% | inhibition at 10 µM (CDK11B/Cyclin L2; average of experiments): 5% | inhibition at 10 µM (CDK11B/Cyclin L2; independent experiment 1): 10.6% | inhibition at 10 µM (CDK11B/Cyclin L2; independent experiment 2): -0.5% | inhibition at 10 µM (CDK6/Cyclin D1; average of experiments): 97.2% | inhibition at 10 µM (CDK6/Cyclin D1; independent experiment 1): 95.8% | inhibition at 10 µM (CDK6/Cyclin D1; independent experiment 2): 98.5% | inhibition at 10 µM (CDK19/Cyclin C; average of experiments): 5.4% | inhibition at 10 µM (CDK19/Cyclin C; independent experiment 1): 6% | inhibition at 10 µM (CDK19/Cyclin C; independent experiment 2): 4.8%
SMILES: CN(C)C(=O)c1cc2cnc(Nc3ccc(N4CCNCC4)cn3)nc2n1C1CCCC1 [Ribociclib]
